Source: US20250236599A1, “LIPID NANOPARTICLES FOR OLIGONUCLEOTIDE DELIVERY” (ZIPHIUS NV, priority 2021, published 2025)

How the values were obtained:
[1] = LNP particle size, polydispersity index and charge by Zeta Sizer; assay type: physicochemical; settings: LNP lipid:DOPE:Cholesterol:DMG-PEG 35:20:43.5:1.5, firefly luciferase saRNA; for Polydispersity Index (PI) / Z-average (nm): N/P approx. 40/1
Procedure: Cationic lipids, DOPE, Cholesterol and DMG-PEG lipid were solubilized in ethanol or DMSO at a molar ratio of 35:20:43.5:1.5 and a concentration of 100:25:20:25 μg/μL for C12-200 or 170:25:20:25 μg/μL for the comparator lipids. Lipid nanoparticles (LNP) were prepared by targeting an N/P ratio of approximately 40/1 with saRNA. Briefly, the firefly luciferase saRNA of approximately 9659 nucleotides was diluted to 0.5 mg/mL in 5 mM citrate buffer, pH 4.5. Microfluidic mixer (Ignite from Precision Nanosystems, California, USA) was used to mix the lipid solution with the saRNA aqueous solution at a ratio of about 1:3 (vol/vol) with total flow rates above 10 ml/min. The ethanol was then removed, and the external buffer replaced with 10 mM TRIS-HCL, PH 7.4, by dialysis. Finally, the lipid nanoparticles were filtered through a 0.2 μm pore sterile filter. Lipid nanoparticle particle size was 50-150 nm diameter and polydispersity index (PI) of 0.1-0.4 as determined by Zeta Sizer (Malvern Panalytical, UK). The charge of the formulation was also measured by Zeta Sizer and ranged between 20 to −20 mV.

[2] = saRNA loading / encapsulation efficiency, Quant-IT RiboGreen assay; assay type: physicochemical; settings: LNP lipid:DOPE:Cholesterol:DMG-PEG 35:20:43.5:1.5, firefly luciferase saRNA
Procedure: The saRNA loading in LNP formulations was quantified using a Quant-IT RiboGreen assay (Thermo Fisher Scientific, Waltham, Massachusetts, USA) as previously described. 14 samples were diluted tenfold in 1x Tris HCL-EDTA (TE) buffer (10 mM Tris-HCL, 1 mM EDTA, pH 7.5) with or without 2% (v/v) Triton X-100 (Sigma-Aldrich, Saint Louis, Missouri, USA). Standard solutions were also prepared in 1xTE with or without 2% (v/v) Triton X-100 to account for any variation in fluorescence. The assay was performed according to the manufacturer's protocol. Samples were loaded on a black 96-well plate and analysed for fluorescence on a microplate reader (Tecan Infinite® 200 PRO) at an excitation of 485 nm and emission at 528 nm. Encapsulation efficiency was calculated between 80-100%.

[3] = test system: expression of the luciferase saRNA; assay: In vivo bioluminescent imaging after intramuscular injection of LNP-formulated luciferase saRNA; settings: 1 μg LNP-formulated luciferase saRNA intramuscularly, female SWISS mice
Procedure: (§1) Female SWISS mice (6 weeks old) were purchased from Janvier Laboratories (Paris, France) and kept in individually ventilated cages with access to food and water ad libitum. Mice were anesthetized with isoflurane (Zoetis, Louvain-La-Neuve, Belgium) (5% for induction and 2% for maintenance) and intramuscularly injected with a total of 1 μg in 100 μL Tris-HCL (50 μL per leg) LNP-formulated luciferase saRNA (for each group n=7). The expression of the luciferase induced bioluminescence was measured via non-invasive In vivo bioluminescent imaging (In vivo Imaging System (IVIS) Lumina III, Perkin Elmer, Waltham, Massachusetts, USA), 10 minutes after subcutaneous injection of […] of D-luciferin (GoldBio, Saint Louis, Missouri, USA, #LUCK-1G) were measured in day 0 (before injection), day 1, day 3, day 5, day 7, day 10, day 15 and day 20.

[4] = Weight evolution of the animals following administration of LNPs; assay type: in vivo; settings: female SWISS mice
Procedure: as §1

[5] = Day 1, 1 μg LNP-formulated saRNA intramuscularly
[6] = Day 3, 1 μg LNP-formulated saRNA intramuscularly
[7] = Day 5, 1 μg LNP-formulated saRNA intramuscularly
[8] = Day 7, 1 μg LNP-formulated saRNA intramuscularly
[9] = Day 10, 1 μg LNP-formulated saRNA intramuscularly
[10] = Day 15, 1 μg LNP-formulated saRNA intramuscularly
[11] = Day 20, 1 μg LNP-formulated saRNA intramuscularly

| Structure (SMILES) | Zetapotential (mV) [1] [mV] | Polydispersity Index (PI) [1] | Z-average (nm) [1] [nm] | Encapsulation (%) [2] [%] | Bioluminescence expression of LNPs ([3]; Day 1) | Bioluminescence expression of LNPs ([3]; Day 3) | Bioluminescence expression of LNPs ([3]; Day 5) | Bioluminescence expression of LNPs ([3]; Day 7) | Bioluminescence expression of LNPs ([3]; Day 10) | Bioluminescence expression of LNPs ([3]; Day 15) | Bioluminescence expression of LNPs ([3]; Day 20) | Weight ([4]; Day 0) [g] | Weight [4, 5] [g] | Weight [4, 6] [g] | Weight [4, 7] [g] | Weight [4, 8] [g] | Weight [4, 9] [g] | Weight [4, 10] [g] | Weight [4, 11] [g] |
| --- | --- | --- | --- | --- | --- | --- | --- | --- | --- | --- | --- | --- | --- | --- | --- | --- | --- | --- | --- |
| CCCCCCCCC(CCCCCC)C(=O)OCCCCCCN(CCCCCCOC(=O)C(CCCCCC)CCCCCCCC)CCN1CCN(CCN(CCCCCCOC(=O)C(CCCCCC)CCCCCCCC)CCCCCCOC(=O)C(CCCCCC)CCCCCCCC)CC1 (centres unmarked) [Compound 9-37, ((piperazine-1,4-diylbis(ethane-2,1-diyl))bis(azanetriyl)) tetrakis(hexane-6,1-diyl) tetrakis(2-hexyldecanoate)] | −9.93 | 0.27 | 89.43 | 92.32 | 1.07E+07 | 2.06E+08 | 4.17E+08 | 3.54E+08 | 2.11E+06 | 7.50E+04 | 2.65E+04 | 28.21 | 26.73 | 28.81 | 28.84 | 28.84 | 29.36 | 30.63 | 31.61 |
| CCCCCCC(CCCC)C(=O)OCCN(CCOC(=O)C(CCCC)CCCCCC)CCN(CCOC(=O)C(CCCC)CCCCCC)CCN1CCN(CCN(CCOC(=O)C(CCCC)CCCCCC)CCOC(=O)C(CCCC)CCCCCC)CC1 (centres unmarked) [Compound 9-26, ((2-(4-(2-((2-(bis(2-((2-butyloctanoyl)oxy)ethyl)amino)ethyl) (2-((2-butyloctanoyl)oxy)ethyl)amino)ethyl)piperazin-1-yl)ethyl)azanediyl) bis(ethane-2,1-diyl)bis(2-butyloctanoate)] | −18.67 | 0.28 | 100.07 | 92.78 | 8.16E+06 | 2.76E+08 | 6.92E+08 | 6.31E+08 | 2.23E+07 | 4.91E+05 | 7.78E+04 | 27.91 | 27.31 | 28.51 | 28.46 | 28.44 | 29.13 | 30.50 | 32.44 |
